In assay [1] the target is T1, Amyloid-beta precursor protein (Homo sapiens, UniProt P05067). Nature of the assay: Inhibition of 15N-labelled amyloid beta (1 to 42) (unknown origin) expressed in Escherichia coli BL21 (DE3)-pLysS cells fibrillization assessed as decrease in indicator of fibrillization (DoF) by AFM microscopic analysis.
Assay [2] addresses T1, Amyloid-beta precursor protein. Nature of the assay: Disaggregation of 15N-labelled amyloid beta (1 to 42) (unknown origin) expressed in Escherichia coli BL21 (DE3)-pLysS cells in pH 7.4 buffer assessed as absence of bundle of fibrils at 1:20 protein to compound molar ratio incubated for 192 hrs by AFM microscopic analysis.
Assay [3] shares this target. Nature of the assay: Binding affinity to 5R to 22E residues of 15N-labelled amyloid beta (1 to 42) (unknown origin) expressed in Escherichia coli BL21 (DE3)-pLysS cells assessed as chemical shift perturbation by measuring dissociation constant by Chemical shift mapping NMR analysis.
For assay [4] the target is unchanged. Nature of the assay: Disaggregation of 15N-labelled amyloid beta (1 to 42) (unknown origin) expressed in Escherichia coli BL21 (DE3)-pLysS cells in pH 7.4 buffer assessed as absence of mature fibrils at 1:20 protein to compound molar ratio incubated for 192 hrs by AFM microscopic analysis.
The next assay relates to SH-SY5Y. Description: Neuroprotective activity against amyloid beta (1 to 42)-induced cytotoxicity in human SH-SY5Y cells assessed as increase in cell viability at 0.000001 to 10 mM preincubated with compound for 48 hrs followed by stimulation with amyloid beta(1 to 42) and measured after 18 hrs by MTT assay. The note with it: dose lower 1 nM, dose upper 10.0 mM. Format: functional, cell-based. Background: Formazan colour is commonly taken as a measure of viable cells.

Assay [5] concerns the target T1, Amyloid-beta precursor protein. Nature of the assay: Inhibition of 15N-labelled amyloid beta (1 to 42) (unknown origin) expressed in Escherichia coli BL21 (DE3)-pLysS cells fibrillization assessed as absence of mature fibrils at 1:20 protein to compound molar ratio incubated for 192 hrs by AFM microscopic analysis.
For assay [6] the target is unchanged. Nature of the assay: Inhibition of 15N-labelled amyloid beta (1 to 42) (unknown origin) expressed in Escherichia coli BL21 (DE3)-pLysS cells fibrillization assessed as absence of observable number of protofibrils at 1:20 protein to compound molar ratio incubated for 192 hrs by AFM microscopic analysis.

In ChEMBL document CHEMBL5120852, “New Aβ(1-42) ligands from anti-amyloid antibodies: Design, synthesis, and structural interaction” (Eur J Med Chem, 2022) one finds Activity, Kd and inhibition data, which are given here for 2 compounds.

As usually defined, the Kd is the concentration at which binding is half-saturated.

The source made the active and inactive calls. The rule behind the calls is not given here. Where a SMILES comes first, the peptide text is derived from it. [ ]: non-standard residue; d: D form. Aib = CC(C)(N)C(=O)O

T1 sequence (P05067 whole entry): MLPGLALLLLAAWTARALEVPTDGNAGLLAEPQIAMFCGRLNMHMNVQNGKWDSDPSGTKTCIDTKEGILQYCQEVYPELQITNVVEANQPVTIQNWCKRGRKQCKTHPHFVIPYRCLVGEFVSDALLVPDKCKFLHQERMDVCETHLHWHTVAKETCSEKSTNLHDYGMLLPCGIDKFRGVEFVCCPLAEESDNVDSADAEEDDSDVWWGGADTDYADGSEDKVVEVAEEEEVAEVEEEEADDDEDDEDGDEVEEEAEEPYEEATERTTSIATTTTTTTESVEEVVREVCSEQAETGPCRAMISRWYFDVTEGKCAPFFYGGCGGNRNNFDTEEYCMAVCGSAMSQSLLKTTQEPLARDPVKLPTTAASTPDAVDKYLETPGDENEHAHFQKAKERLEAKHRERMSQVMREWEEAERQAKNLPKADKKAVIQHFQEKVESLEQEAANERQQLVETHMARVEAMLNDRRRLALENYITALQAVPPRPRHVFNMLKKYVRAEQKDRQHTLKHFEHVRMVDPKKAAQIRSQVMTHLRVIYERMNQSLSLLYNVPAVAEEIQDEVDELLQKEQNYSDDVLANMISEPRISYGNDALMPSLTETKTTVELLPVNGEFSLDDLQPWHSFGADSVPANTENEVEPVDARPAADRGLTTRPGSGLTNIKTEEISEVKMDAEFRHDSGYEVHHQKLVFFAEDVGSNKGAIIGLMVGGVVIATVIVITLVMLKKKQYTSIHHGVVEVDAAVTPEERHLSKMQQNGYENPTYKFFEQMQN

Take `CC(C)(NC(=O)[C@@H](N)Cc1c[nH]c2ccccc12)C(=O)N[C@@H](Cc1c[nH]cn1)C(=O)O` (H-Trp-[Aib]-His-OH): the Activity in assay [1] is 0.03. The result (in assay [2]; in assay [4]; in the assay with SH-SY5Y) was Active. In addition, the Kd in assay [3] worked out at 5.74 mM. Also, the inhibition entry in assay [5] and in assay [6] was “Active” in each case.

Turning to H-SYSTPGK-OH, the Activity in assay [1] amounted to 0.06. Further, the outcome (in assay [2]; in assay [4]; with SH-SY5Y) was Active. In assay [3], the Kd is 0.65 mM. The inhibition entry in assay [5] and in assay [6] was “Active” each time.
